PubChem BioAssay (NCI)
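Here, GI50 denotes the concentration required for 50% inhibition of growth. TGI is the concentration that stops growth completely.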

Columns and labels:
Assay in all cases: NCI anticancer screen, dose series, 384-well format
[1] = system: 786-0 renal
[2] = system: A549 NSCLC
[3] = system: ACHN renal
[4] = system: CAKI-1 renal
[5] = system: CCRF-CEM leukemia
[6] = system: DU-145 prostate
[7] = system: EKVX NSCLC
[8] = system: HCC-2998 colon
[9] = system: HCT-116 colon
[10] = system: HCT-15 colon
[11] = system: HL-60(TB) leukemia
[12] = system: HOP-92 NSCLC
[13] = system: HT29 colon
[14] = system: K-562 leukemia
[15] = system: M14 melanoma
[16] = system: MALME-3M melanoma
[17] = system: MCF7 breast
[18] = system: MDA-MB-435 melanoma
[19] = system: MDA-MB-468 breast
[20] = system: MOLT-4 leukemia
[21] = system: NCI-H226 lung
[22] = system: NCI-H23 lung
[23] = system: NCI-H460 NSCLC
[24] = system: NCI-H522 lung
[25] = system: NCI/ADR-RES ovarian
[26] = system: OVCAR-3 ovarian
[27] = system: OVCAR-4 ovarian
[28] = system: OVCAR-5 ovarian
[29] = system: OVCAR-8 ovarian
[30] = system: PC-3 prostate
[31] = system: RXF 393 renal
[32] = system: SF-268 CNS
[33] = system: SF-295 CNS
[34] = system: SF-539 CNS
[35] = system: SK-MEL-2 melanoma
[36] = system: SK-MEL-28 melanoma
[37] = system: SK-MEL-5 melanoma
[38] = system: SK-OV-3 ovarian
[39] = system: SN12C renal
[40] = system: SNB-19 CNS
[41] = system: SNB-75 CNS
[42] = system: SW-620 colon
[43] = system: T-47D breast
[44] = system: TK-10 renal
[45] = system: UACC-257 melanoma
[46] = system: UACC-62 melanoma
[47] = system: UO-31 renal

With `O=C(Nc1cccc(C(F)(F)F)c1)Nc1cc(S(=O)(=O)NC2CC2)ccc1-c1ccsc1` as the compound, how does the GI50 [1] read?
The GI50 was 4.09 µM.

And the TGI [1]?
The TGI was 14.3 µM.

And the GI50 [2]?
Its GI50 is 4.02 µM.

What about the TGI [2] of the same compound?
The TGI was 13.7 µM.

What about the GI50 [3] of the same compound?
The GI50 was 3.25 µM.

What about the TGI [3] of the same compound?
Its TGI is 11.9 µM.

And the GI50 [4]?
Its GI50 is 3.59 µM.

And the TGI [4]?
The TGI was 15.2 µM.

What about the GI50 [5] of the same compound?
The GI50 was 2.4 µM.

What about the TGI [5] of the same compound?
The TGI was 5.85 µM.

And the GI50 [6]?
The GI50 was 6.35 µM.

And the TGI [6]?
Its TGI is 16.4 µM.

What about the GI50 [7] of the same compound?
Its GI50 is 4.79 µM.

And the TGI [7]?
Its TGI is 15.5 µM.

What about the GI50 [8] of the same compound?
The GI50 was 5.7 µM.

And the TGI [8]?
The TGI was 16.2 µM.

What about the GI50 [9] of the same compound?
Its GI50 is 3.17 µM.

What about the TGI [9] of the same compound?
Its TGI is 10.6 µM.

And the GI50 [10]?
Its GI50 is 3.49 µM.

And the TGI [10]?
Its TGI is 12.5 µM.

What about the GI50 [11] of the same compound?
Its GI50 is 1.93 µM.

And the TGI [11]?
Its TGI is 3.52 µM.

And the GI50 [12]?
Its GI50 is 3.36 µM.

What about the TGI [12] of the same compound?
Its TGI is 10.5 µM.

And the GI50 [13]?
Its GI50 is 4.35 µM.

And the TGI [13]?
The TGI was 14.9 µM.

And the GI50 [14]?
The GI50 was 3.45 µM.

What about the TGI [14] of the same compound?
The TGI was 11.5 µM.

What about the GI50 [15] of the same compound?
Its GI50 is 5.88 µM.

And the TGI [15]?
The TGI was 16.7 µM.

And the GI50 [16]?
Its GI50 is 6.91 µM.

And the TGI [16]?
Its TGI is 18.9 µM.

What about the GI50 [17] of the same compound?
Its GI50 is 3.68 µM.

And the TGI [17]?
The TGI was 12.4 µM.

What about the GI50 [18] of the same compound?
Its GI50 is 6.53 µM.

What about the TGI [18] of the same compound?
The TGI was 18.9 µM.

What about the GI50 [19] of the same compound?
The GI50 was 1.96 µM.

What about the TGI [19] of the same compound?
The TGI was 4.12 µM.

What about the GI50 [20] of the same compound?
Its GI50 is 1.78 µM.

What about the TGI [20] of the same compound?
The TGI was 3.35 µM.

What about the GI50 [21] of the same compound?
The GI50 was 4.75 µM.

And the TGI [21]?
Its TGI is 14.7 µM.

What about the GI50 [22] of the same compound?
Its GI50 is 2.83 µM.

And the TGI [22]?
Its TGI is 8.74 µM.

What about the GI50 [23] of the same compound?
Its GI50 is 2.4 µM.

And the TGI [23]?
The TGI was 5.08 µM.

What about the GI50 [24] of the same compound?
The GI50 was 2.69 µM.

And the TGI [24]?
Its TGI is 8.11 µM.

What about the GI50 [25] of the same compound?
Its GI50 is 6.69 µM.

What about the TGI [25] of the same compound?
Its TGI is 18.3 µM.

What about the GI50 [26] of the same compound?
The GI50 was 2.42 µM.

What about the TGI [26] of the same compound?
Its TGI is 5.79 µM.

What about the GI50 [27] of the same compound?
The GI50 was 5.19 µM.

And the TGI [27]?
Its TGI is 17 µM.

What about the GI50 [28] of the same compound?
Its GI50 is 13.8 µM.

And the TGI [28]?
Its TGI is 26.8 µM.

What about the GI50 [29] of the same compound?
The GI50 was 3.73 µM.

What about the TGI [29] of the same compound?
The TGI was 13.4 µM.

And the GI50 [30]?
Its GI50 is 3.92 µM.

What about the TGI [30] of the same compound?
Its TGI is 13.3 µM.

What about the GI50 [31] of the same compound?
The GI50 was 3.28 µM.

What about the TGI [31] of the same compound?
Its TGI is 12.1 µM.

What about the GI50 [32] of the same compound?
Its GI50 is 4.84 µM.

What about the TGI [32] of the same compound?
Its TGI is 14.4 µM.

And the GI50 [33]?
Its GI50 is 2.96 µM.

What about the TGI [33] of the same compound?
The TGI was 9.42 µM.

And the GI50 [34]?
Its GI50 is 5.91 µM.

And the TGI [34]?
The TGI was 15 µM.

And the GI50 [35]?
The GI50 was 2.72 µM.

And the TGI [35]?
The TGI was 6.07 µM.

What about the GI50 [36] of the same compound?
The GI50 was 10.9 µM.

What about the TGI [36] of the same compound?
The TGI was 22.9 µM.

What about the GI50 [37] of the same compound?
Its GI50 is 2.32 µM.

And the TGI [37]?
Its TGI is 5.61 µM.

And the GI50 [38]?
Its GI50 is 7.67 µM.

And the TGI [38]?
The TGI was 19.8 µM.

And the GI50 [39]?
The GI50 was 4.71 µM.

And the TGI [39]?
The TGI was 17.6 µM.

And the GI50 [40]?
Its GI50 is 4.51 µM.

What about the TGI [40] of the same compound?
The TGI was 14.7 µM.

What about the GI50 [41] of the same compound?
Its GI50 is 4.25 µM.

And the TGI [41]?
The TGI was 15.6 µM.

What about the GI50 [42] of the same compound?
Its GI50 is 3.87 µM.

And the TGI [42]?
The TGI was 13.9 µM.

What about the GI50 [43] of the same compound?
The GI50 was 2.62 µM.

And the TGI [43]?
The TGI was 8.35 µM.

And the GI50 [44]?
Its GI50 is 3.96 µM.

And the TGI [44]?
Its TGI is 14.1 µM.

And the GI50 [45]?
The GI50 was 2.89 µM.

What about the TGI [45] of the same compound?
The TGI was 8.51 µM.

And the GI50 [46]?
The GI50 was 7.26 µM.

And the TGI [46]?
Its TGI is 19.5 µM.

And the GI50 [47]?
Its GI50 is 4.17 µM.

And the TGI [47]?
The TGI was 14.9 µM.
